Data taken from US20230085307A1, “PYRIDAZINONE COMPOUND AND HERBICIDE” (NISSAN CHEMICAL CORPORATION, priority 2019, published 2023).

How the values were obtained:
[1] = tested on: barnyard grass; test: Test Example 5: herbicidal effect by foliage application, plastic box (Table 20, symbol H); format: in vivo, barnyard grass (Echinochloa crus-galli); conditions: foliage application, 320 g/ha, 3 weeks after application
How it was run: (§1)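 Plants sown in sterilized diluvial soil and grown 14 days in a greenhouse at 25° C to 30° C, then sprayed on the foliage with the compound's emulsion diluted in water to a predetermined herbicide amount. Injury to weeds and crops scored three weeks after application on a visual rating scale.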

[2] = tested on: lambsquarters; test: Test Example 5: herbicidal effect by foliage application, plastic box (Table 20, symbol O); format: in vivo, lambsquarters (Chenopodium album); conditions: foliage application, 320 g/ha, 3 weeks after application
How it was run: as §1

[3] = tested on: oval-leafed pondweed; test: Test Example 1: herbicidal activity, application before weed generation under submerged conditions (Table 16, symbol C); format: in vivo, oval-leafed pondweed (Monochoria vaginalis); conditions: 320 g/ha applied herbicide
How it was run: (§2)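 Alluvial soil was flooded to 4 cm depth, weed seeds were sown mixed and 2.5-leaf rice seedlings were transplanted. On sowing day, the compound's emulsion, diluted in water to a set dose, was applied to the water surface. Plants grew at 25–30 °C and were scored 0–5 after three weeks.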

[4] = tested on: blackgrass; test: Test Example 4: herbicidal effect by soil treatment (Table 19, symbol J); format: in vivo, blackgrass (Alopecurus myosuroides)
How it was run: (§3)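 Seeds were sown in sterilized diluvial soil and covered with about 1.5 cm of soil. An emulsion formulation diluted with water to a predetermined herbicide amount was sprayed evenly onto the soil surface. Plants grew in a greenhouse at 25° C. to 30° C., and the effect was scored three weeks after application using criteria from an earlier test.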

[5] = tested on: persian speedwell; test: Test Example 4: herbicidal effect by soil treatment (Table 19, symbol R); format: in vivo, Persian speedwell (Veronica persica)
How it was run: as §3

[6] = tested on: Italian ryegrass; test: Test Example 4: herbicidal effect by soil treatment (Table 19, symbol K); format: in vivo, Italian ryegrass (Lolium multiflorum)
How it was run: as §3

[7] = tested on: green foxtail; test: Test Example 4: herbicidal effect by soil treatment (Table 19, symbol G); format: in vivo, green foxtail (Setaria viridis)
How it was run: as §3

[8] = tested on: barnyard grass; test: Test Example 3: herbicidal effect by foliage application, Wagner pot (Table 18, symbol H); format: in vivo, barnyard grass (Echinochloa crus-galli); conditions: 320 g/ha
How it was run: (§4)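 Plants were sown in alluvial soil held under 0.1–0.5 cm standing water and grown 14 days in a greenhouse at 25–30 °C. An emulsifiable formulation, water-diluted to the set dose, was then sprayed onto the foliage, and effects were scored three weeks later using previously defined criteria.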

[9] = tested on: chickweed; test: Test Example 4: herbicidal effect by soil treatment (Table 19, symbol P); format: in vivo, common chickweed (Stellaria media)
How it was run: as §3

[10] = tested on: wild oat; test: Test Example 4: herbicidal effect by soil treatment (Table 19, symbol I); format: in vivo, wild oat (Avena fatua)
How it was run: as §3

[11] = tested on: southern crabgrass; test: Test Example 5: herbicidal effect by foliage application, plastic box (Table 20, symbol F); format: in vivo, southern crabgrass (Digitaria ciliaris); conditions: foliage application, 320 g/ha, 3 weeks after application
How it was run: as §1

[12] = tested on: lambsquarters; test: Test Example 4: herbicidal effect by soil treatment (Table 19, symbol O); format: in vivo, lambsquarters (Chenopodium album)
How it was run: as §3

[13] = tested on: late watergrass; test: Test Example 1: herbicidal activity, application before weed generation under submerged conditions (Table 16, symbol A); format: in vivo, late watergrass (Echinochloa oryzicola); conditions: 320 g/ha applied herbicide
How it was run: as §2

[14] = tested on: rice flat sedge; test: Test Example 3: herbicidal effect by foliage application, Wagner pot (Table 18, symbol E); format: in vivo, rice flat sedge (Cyperus iria); conditions: 320 g/ha
How it was run: as §4

[15] = tested on: barnyard grass; test: Test Example 4: herbicidal effect by soil treatment (Table 19, symbol H); format: in vivo, barnyard grass (Echinochloa crus-galli)
How it was run: as §3

[16] = tested on: Chinese sprangletop; test: Test Example 3: herbicidal effect by foliage application, Wagner pot (Table 18, symbol D); format: in vivo, chinese sprangletop (Leptochloa chinensis); conditions: 320 g/ha
How it was run: as §4

[17] = tested on: velvetleaf; test: Test Example 4: herbicidal effect by soil treatment (Table 19, symbol M); format: in vivo, velvetleaf (Abutilon theophrasti)
How it was run: as §3

[18] = tested on: velvetleaf; test: Test Example 5: herbicidal effect by foliage application, plastic box (Table 20, symbol M); format: in vivo, velvetleaf (Abutilon theophrasti); conditions: foliage application, 320 g/ha, 3 weeks after application
How it was run: as §1

[19] = tested on: southern crabgrass; test: Test Example 4: herbicidal effect by soil treatment (Table 19, symbol F); format: in vivo, southern crabgrass (Digitaria ciliaris)
How it was run: as §3

[20] = tested on: Italian ryegrass; test: Test Example 5: herbicidal effect by foliage application, plastic box (Table 20, symbol K); format: in vivo, Italian ryegrass (Lolium multiflorum); conditions: foliage application, 320 g/ha, 3 weeks after application
How it was run: as §1

[21] = tested on: windgrass; test: Test Example 4: herbicidal effect by soil treatment (Table 19, symbol L); format: in vivo, windgrass (Apera spica-venti)
How it was run: as §3

[22] = tested on: green foxtail; test: Test Example 5: herbicidal effect by foliage application, plastic box (Table 20, symbol G); format: in vivo, green foxtail (Setaria viridis); conditions: foliage application, 320 g/ha, 3 weeks after application
How it was run: as §1

[23] = tested on: wild oat; test: Test Example 5: herbicidal effect by foliage application, plastic box (Table 20, symbol I); format: in vivo, wild oat (Avena fatua); conditions: foliage application, 320 g/ha, 3 weeks after application
How it was run: as §1

[24] = tested on: blackgrass; test: Test Example 5: herbicidal effect by foliage application, plastic box (Table 20, symbol J); format: in vivo, blackgrass (Alopecurus myosuroides); conditions: foliage application, 320 g/ha, 3 weeks after application
How it was run: as §1

[25] = tested on: persian speedwell; test: Test Example 5: herbicidal effect by foliage application, plastic box (Table 20, symbol R); format: in vivo, Persian speedwell (Veronica persica); conditions: foliage application, 320 g/ha, 3 weeks after application
How it was run: as §1

[26] = tested on: Japanese bulrush; test: Test Example 1: herbicidal activity, application before weed generation under submerged conditions (Table 16, symbol B); format: in vivo, Japanese bulrush (Schoenoplectus juncoides); conditions: 320 g/ha applied herbicide
How it was run: as §2

[27] = tested on: windgrass; test: Test Example 5: herbicidal effect by foliage application, plastic box (Table 20, symbol L); format: in vivo, windgrass (Apera spica-venti); conditions: foliage application, 320 g/ha, 3 weeks after application
How it was run: as §1

[28] = tested on: redroot pigweed; test: Test Example 4: herbicidal effect by soil treatment (Table 19, symbol N); format: in vivo, redroot pigweed (Amaranthus retroflexus)
How it was run: as §3

| Compound | effect on barnyard grass (H) [1] | effect on lambsquarters (O) [2] | Herbicidal effect on C: oval-leafed pondweed (grade 0-5) [3] | herbicidal effect on H (barnyard grass), rating 0-5 [8] | effect on southern crabgrass (F) [11] | Herbicidal effect on A: late watergrass (grade 0-5) [13] | herbicidal effect on E (rice flat sedge), rating 0-5 [14] | herbicidal effect on D (Chinese sprangletop), rating 0-5 [16] | effect on velvetleaf (M) [18] | effect on Italian ryegrass (K) [20] | effect on green foxtail (G) [22] | effect on wild oat (I) [23] | effect on blackgrass (J) [24] | effect on persian speedwell (R) [25] | Herbicidal effect on B: Japanese bulrush (grade 0-5) [26] | effect on windgrass (L) [27] | other results |
| --- | --- | --- | --- | --- | --- | --- | --- | --- | --- | --- | --- | --- | --- | --- | --- | --- | --- |
| Cc1nn(C)c(=O)c(-c2c(-c3ccc(OC(C)C#N)cc3)sc3ccccc23)c1O (racemic) [1-236] | 5 (Herbicidal rate of 90% or more (almost completely withered)) | 5 (Herbicidal rate of 90% or more (almost completely withered)) | 0 (Herbicidal rate of 5% or less (almost no effect)) | 5 (Herbicidal rate of 90% or more (almost completely withered)) | 4 (Herbicidal rate of 70% or more and less than 90%) | 3 (Herbicidal rate of 40% or more and less than 70%) | 5 (Herbicidal rate of 90% or more (almost completely withered)) | 5 (Herbicidal rate of 90% or more (almost completely withered)) | 5 (Herbicidal rate of 90% or more (almost completely withered)) | 5 (Herbicidal rate of 90% or more (almost completely withered)) | 4 (Herbicidal rate of 70% or more and less than 90%) | 5 (Herbicidal rate of 90% or more (almost completely withered)) | 4 (Herbicidal rate of 70% or more and less than 90%) | 5 (Herbicidal rate of 90% or more (almost completely withered)) | 0 (Herbicidal rate of 5% or less (almost no effect)) | 0 (Herbicidal rate of 5% or less (almost no effect)) | J: blackgrass, herbicidal effect rating ([4]; AAH 320 g/ha): 0 (Herbicidal rate of 5% or less (almost no effect)); R: persian speedwell, herbicidal effect rating ([5]; AAH 320 g/ha): 4 (Herbicidal rate of 70% or more and less than 90%); K: Italian ryegrass, herbicidal effect rating ([6]; AAH 320 g/ha): 3 (Herbicidal rate of 40% or more and less than 70%); G: green foxtail, herbicidal effect rating ([7]; AAH 320 g/ha): 4 (Herbicidal rate of 70% or more and less than 90%); P: chickweed, herbicidal effect rating ([9]; AAH 320 g/ha): 4 (Herbicidal rate of 70% or more and less than 90%); I: wild oat, herbicidal effect rating ([10]; AAH 320 g/ha): 0 (Herbicidal rate of 5% or less (almost no effect)); O: lambsquarters, herbicidal effect rating ([12]; AAH 320 g/ha): 4 (Herbicidal rate of 70% or more and less than 90%); H: barnyard grass, herbicidal effect rating ([15]; AAH 320 g/ha): 5 (Herbicidal rate of 90% or more (almost completely withered)); M: velvetleaf, herbicidal effect rating ([17]; AAH 320 g/ha): 1 (Herbicidal rate of 5% or more and less than 20%); F: southern crabgrass, herbicidal effect rating ([19]; AAH 320 g/ha): 4 (Herbicidal rate of 70% or more and less than 90%); L: windgrass, herbicidal effect rating ([21]; AAH 320 g/ha): 0 (Herbicidal rate of 5% or less (almost no effect)); N: redroot pigweed, herbicidal effect rating ([28]; AAH 320 g/ha): 5 (Herbicidal rate of 90% or more (almost completely withered)) |
| CCOC(=O)Oc1c(C)nn(C)c(=O)c1-c1c(-c2ccc(F)cc2)sc2ccc(F)cc12 [2-004] | 4 (Herbicidal rate of 70% or more and less than 90%) | 3 (Herbicidal rate of 40% or more and less than 70%) | 2 (Herbicidal rate of 20% or more and less than 40%) | 5 (Herbicidal rate of 90% or more (almost completely withered)) | 4 (Herbicidal rate of 70% or more and less than 90%) | 0 (Herbicidal rate of 5% or less (almost no effect)) | 4 (Herbicidal rate of 70% or more and less than 90%) | 3 (Herbicidal rate of 40% or more and less than 70%) | 5 (Herbicidal rate of 90% or more (almost completely withered)) | 5 (Herbicidal rate of 90% or more (almost completely withered)) | 5 (Herbicidal rate of 90% or more (almost completely withered)) | 0 (Herbicidal rate of 5% or less (almost no effect)) | 4 (Herbicidal rate of 70% or more and less than 90%) | 5 (Herbicidal rate of 90% or more (almost completely withered)) | 2 (Herbicidal rate of 20% or more and less than 40%) | 3 (Herbicidal rate of 40% or more and less than 70%) | herbicidal effect rating, J: blackgrass ([4]; 320 g/ha): 0 (Herbicidal rate of 5% or less (almost no effect)); herbicidal effect rating, R: persian speedwell ([5]; 320 g/ha): 1 (Herbicidal rate of 5% or more and less than 20%); herbicidal effect rating, K: Italian ryegrass ([6]; 320 g/ha): 5 (Herbicidal rate of 90% or more (almost completely withered)); herbicidal effect rating, G: green foxtail ([7]; 320 g/ha): 5 (Herbicidal rate of 90% or more (almost completely withered)); herbicidal effect rating, P: chickweed ([9]; 320 g/ha): 5 (Herbicidal rate of 90% or more (almost completely withered)); herbicidal effect rating, I: wild oat ([10]; 320 g/ha): 0 (Herbicidal rate of 5% or less (almost no effect)); herbicidal effect rating, O: lambsquarters ([12]; 320 g/ha): 5 (Herbicidal rate of 90% or more (almost completely withered)); herbicidal effect rating, H: barnyard grass ([15]; 320 g/ha): 4 (Herbicidal rate of 70% or more and less than 90%); herbicidal effect rating, M: velvetleaf ([17]; 320 g/ha): 3 (Herbicidal rate of 40% or more and less than 70%); herbicidal effect rating, F: southern crabgrass ([19]; 320 g/ha): 4 (Herbicidal rate of 70% or more and less than 90%); herbicidal effect rating, L: windgrass ([21]; 320 g/ha): 0 (Herbicidal rate of 5% or less (almost no effect)); herbicidal effect rating, N: redroot pigweed ([28]; 320 g/ha): 5 (Herbicidal rate of 90% or more (almost completely withered)) |
